Earlier results as cited in patent publication US5827682A, “Two-step conversion of vegetable protein isoflavone conjugates to aglucones” (Protein Technologies International, Inc., priority 1996, dated 1998).

Experiments:
[1] = system: Epidermal Growth Factor Receptor; conditions: title of cited article
[2] = system: human prostate cancer cells; conditions: title of cited article
[3] = system: human breast cancer cells; conditions: title of cited article; independence from estrogen receptors and the multi-drug resistance gene

SMILES | Inhibition of epidermal growth factor receptor tyrosine autophosphorylation [1] | Inhibition of the growth of human prostate cancer cells [2] | Inhibition of the growth of human breast cancer cells [3]
COc1ccc(-c2coc3cc(O)cc(O)c3c2=O)cc1 [Biochanin A, biochanin A] | not Epidermal Growth Factor Receptor Tyrosine Autophosphorylation | Inhibit the Growth of Human Prostate Cancer Cells | –
O=c1c(-c2ccc(O)cc2)coc2cc(O)cc(O)c12 [Genistein, genistein] | not Epidermal Growth Factor Receptor Tyrosine Autophosphorylation | Inhibit the Growth of Human Prostate Cancer Cells | Inhibition of the Growth of Human Breast Cancer Cells
